The structures appear in SMILES notation. A value given as a limit tells only on which side of the number the result lay.

The source of these data is US5508293A, “Pyridinecarboxyimidamide compounds and the use thereof” (Kirin Beer Kabushiki Kaisha, priority 1992, dated 1996).

Assay [1] concerns spontaneously hypertensive rats (SHR), mean blood pressure. The experiment in a line: Antihypertensive activities on spontaneously hypertensive rat (intravenously). The conditions noted are these: iv, anesthetized male SHR, i.v., cumulative dosing, read-out: ED20 (the dose which lowered the blood pressure by 20%). The assay is classed as in vivo, rat (male spontaneously hypertensive rats. As for the experimental part: Animals were anesthetized with urethane: α-chloralose.
A cannula was inserted into the carotid artery for measuring the mean blood pressure via a pressure transducer. A test compound was cumulatively administered through the cannula inserted into the femoral vein with an interval of 30 minutes. Variation of blood pressure was determined as the percentage change in the blood pressure before administration of the test compound, and the ED20 (the dose which lowered the blood pressure by 20%) was calculated from a dose-response curve.

A further assay concerns rat aorta. Description: Vasodilating effect in a rat aorta (relaxation of KCl-induced contraction). Also noted: species or system rat (male Wistar rat). The conditions noted are these: isolated rat thoracic aorta, 40 mM KCl; read-out: IC50 (concentration for inhibiting 50% of the tension induced by KCl). Here is the method: Physiological effect of the compound of the present invention was tested by the method with use of an isolated rat aorta.
Thoracic aorta was isolated from a male Wistar rat (body weight, 250-350 g) exsanguinated to death for obtaining ring preparations having a width of 3 mm. The preparations were suspended into an organ bath filled with the Krebs-Ringer solution through which a mixed gas of 95% O2 and 5% CO2 had been aerated at 37° C. A resting tension of 1 g was applied to the preparation. After the tension in the preparation was stabilized, the solution in the organ bath was exchanged with an equimolar solution containing 40 mM KC1 to increase the tension of the preparation. When the tension induced by KCl become stable, the test compound was cumulatively added to the organ bath to relax the preparation. Relaxation response was expressed as percentage inhibition of KCl-induced contraction, and the IC50 value (concentration for inhibiting 50% of the tension induced by KCl) was calculated from the average concentration-response curve by the Probit method.

The test system of assay [2] is spontaneously hypertensive rats (SHR), systolic blood pressure. The experiment in a line: Antihypertensive effects on conscious SHR (oral), Compound Nos. 18 and 19. The assay is classed as in vivo, rat (male spontaneously hypertensive rats. The conditions noted are these: 3.0 mg/kg oral. As for the experimental part:
Antihypertensive effects of- 5-amino-N-cyano-N'-(2-nitroxyethyl)-3-pyridinecarboximidamide (N-cyano-N'-(2-nitroxyethyl)-5-(3-aminopyridine)carboximidamide; Compound No. 18) and N-cyano-5-ethylamino-N'-(2-nitroxyethyl)-3-pyridinecarboximidamide (N-cyano-N'-(2-nitroxyethyl)-5-[3-(N-ethylaminopyridine)]carboximidamide; Compound No. 19) were assessed by comparison with those of the methanesulfonate salt of N-cyano-N'-(2-nitroxyethyl)-3-pyridinecarboximidamide (compound described in Japanese Patent Laid-Open Publication No. 163061/1991) as a reference compound which is thought to be a well-known compound most similar to the compound of the present invention.
(§1) Systolic blood pressure (SBP) was measured with the tail cuff method.
Each of the compound Nos. 18 and 19 was dissolved in an equivalent mixture of polyethylene glycol 200 and physiological saline, and the reference compound was dissolved in physiological saline. The compounds were administered orally with the aid of an oral probe. SBP was measured before administration and 1, 2, 4, 6, 8, 12 and 24 hours after administration of the compound. The results were expressed as the percentage change in SBP observed before administration.

A further assay relates to beagles, blood pressure. The experiment in a line: Antihypertensive activity on anesthetized beagles (intravenously). The following applies: for Antihypertensive activity (%): i.v. The format is in vivo, dog (beagles). As for the experimental part:
Antihypertensive activities of 5-amino-N-cyano-N'-[2-(2-chlorophenyl)ethyl]-3-pyridinecarboximidamide (N-cyano-N'-[2-(2-chlorophenyl)ethyl]-5-(3aminopyridine)carboximidamide; Compound No. 6) according to the present invention was assessed by comparison with those of N-cyano-N'-[2-(2-chlorophenyl)ethyl]-3-pyridinecarboximidamide which is thought to be a wellknown compound most similar to the compound of the present invention (see Japanese Patent Laid-Open Publication No. 163061/1991).
Experiments were carried out with beagles (body weight, 9.2-10.4 kg) under anesthetization by intravenous administering 30 mg/kg of pentobarbital sodium. A cannula was inserted into the right femoral artery for measuring blood pressure. […]

The test system of assay [3] is coronary blood flow (circumflex branch of the left coronary artery), beagles. The experiment in a line: Coronary dilating effect on beagles (coronary blood flow, anesthetized dog). The assay is classed as in vivo. The conditions noted are these: i.v., 10 Mg/Kg. As for the experimental part: Coronary dilating effects of 5-amino-N-cyano-N'-(2-nitroxyethyl)-3-pyridinecarboximidamide (Compound No. 18) of the present invention was assessed by comparison with those of N-cyano-N'-(2-nitroxyethyl)-3-pyridinecarboximidamide methanesulfonic acid (compound described in Japanese Patent Laid-Open Publication No. 163061/1991) which is thought to be a well-known compound most similar to the compound of the present invention.
A dog (body weight, 8.3 kg) was anesthetized with 30 mg/kg of pentobarbital sodium intravenously. Respiration was maintained with room air through a cuffed endotracheal tube. The drug was administered through the femoral vein, and the coronary blood flow was measured by a probe attached to the circumflex branch of the left coronary artery.

Assay [4] has as its system spontaneously hypertensive rats (SHR), systolic blood pressure. The experiment in a line: Time course of antihypertensive activity in conscious SHR (oral), Compound No. 16. The assay is classed as in vivo, rat (male spontaneously hypertensive rats. The conditions noted are these: 3.0 mg/kg oral. As for the experimental part: Time course of antihypertensive activity of 5-amino-N-cyano-N'-(2-phenethyl)pyridinecarboximidamide (Compound No. 16) was examined.
as §1
The compound No. 16 was dissolved in an equivalent mixture of polyethylene glycol 200 and physiological saline, and administered orally with the aid of an oral probe. SBP was measured before administration and 1, 2, 4, 6, 8, 12 and 24 hours after administration of the compound. The results were expressed as the percentage change in SBP obtained before administration.

In the case of `Cc1cncc(C(=NCCc2ccccc2Cl)NC#N)c1` [Compound No. 1, N-cyano-N'-[2-(2-chlorophenyl)ethyl]-5-methyl-3-pyridinecarboximidamide], the ED20 in assay [1] was 0.0171 mg/kg.

`CCNc1cncc(C(=NCCO[N+](=O)[O-])NC#N)c1` [Compound No. 19, N-cyano-5-ethylamino-N'-(2-nitroxyethyl)-3-pyridinecarboximidamide]: the IC50 in the assay on rat aorta was 10 µM. For the same compound, the “decrease in blood pressure / antihypertensive effect” value in assay [2] is listed as “decrease in blood pressure was observed”. The “duration of the antihypertensive effect” value in assay [2] is at least 12 h. In addition, the “percent change in SBP observed before administration of the compound” value (shortened to “percent change … of the compound”) in assay [2] (1 hour after administration) is -60.2%; in assay [2] (2 hour after administration) it was -47.2%; in assay [2] (4 hour after administration), -24.3%; in assay [2] (6 hour after administration), -23.9%; in assay [2] (8 hour after administration) it was -25.9%; in assay [2] (12 hour after administration) it was -27.7%. Also, the “percent change … of the compound” value in assay [2] (24 hour after administration) is on record as -9.8%.

As for `CCNc1cncc(C(=NCCc2ccccc2Cl)NC#N)c1` [compound 10, N-cyano-N'-[2-(2-chlorophenyl)ethyl]-5-ethylamino-3-pyridinecarboximidamide], the ED20 in assay [1] worked out at 0.0079 mg/kg.

With `N#CNC(=NCCc1ccccc1Cl)c1cccnc1` [N-cyano-N'-[2-(2-chlorophenyl)ethyl]-3-pyridinecarboximidamide, reference compound], the “decrease in blood pressure” value with beagles, blood pressure (10 and 30 μg/kg) is “decrease in blood pressure was observed”. Also, the “recovery of the decrease in blood pressure after administration” value with beagles, blood pressure (both doses, 10 and 30 μg/kg) was at most 10 min. In addition, the “Antihypertensive activity (%)” value is on record as 0.0% in the assay on beagles, blood pressure (dose 3 μg/kg, 0 min after dosage); 0.0% in the assay with beagles, blood pressure (dose 3 μg/kg, 1 min after dosage); 1.9% in the assay with beagles, blood pressure (dose 3 μg/kg, 2 min after dosage); 1.9% in the assay with beagles, blood pressure (dose 3 μg/kg, 3 min after dosage); 0.0% in the assay with beagles, blood pressure (dose 10 μg/kg, 0 min after dosage); -23.4% in the assay with beagles, blood pressure (dose 10 μg/kg, 1 min after dosage). Moreover, the “Antihypertensive activity (%)” value in the assay on beagles, blood pressure (dose 10 μg/kg, 2 min after dosage) is -17.7%; in the assay on beagles, blood pressure (dose 10 μg/kg, 3 min after dosage) it was -13.1%; in the assay on beagles, blood pressure (dose 10 μg/kg, 5 min after dosage), -4.7%; in the assay with beagles, blood pressure (dose 30 μg/kg, 0 min after dosage) it was 0.0%; with beagles, blood pressure (dose 30 μg/kg, 1 min after dosage) it was -41.7%; in the assay on beagles, blood pressure (dose 30 μg/kg, 2 min after dosage), -39.8%. Also, the “Antihypertensive activity (%)” value in the assay with beagles, blood pressure (dose 30 μg/kg, 3 min after dosage) is -33.3%; in the assay with beagles, blood pressure (dose 30 μg/kg, 5 min after dosage), -16.7%; in the assay on beagles, blood pressure (dose 30 μg/kg, 7.5 min after dosage), -2.8%; with beagles, blood pressure (dose 30 μg/kg, 10 min after dosage) it was -0.9%.

For `CCc1cncc(C(=NCCc2ccccc2Cl)NC#N)c1` [compound 2, N-cyano-N'-[2-(2-chlorophenyl)ethyl]-5-ethyl-3-pyridinecarboximidamide], the ED20 in assay [1] was found to be 0.007 mg/kg.

Regarding `CC(=O)Nc1cncc(C(=NC#N)NCCc2ccccc2Cl)c1` [compound 7, 5-acetamide-N-cyano-N'-[2-(2-chlorophenyl)-ethyl]-3-pyridinecarboximidamide], the ED20 in assay [1] worked out at 0.0123 mg/kg.

As for `N#CNC(=NCCc1ccccc1Cl)c1ccc(N)nc1` [compound 5, 6-amino-N-cyano-N'-[2-(2-chlorophenyl)ethyl]-3-pyridinecarboximidamide], in assay [1], the ED20 came to 0.0333 mg/kg.

For the compound `N#CNC(=NCCc1ccccc1Cl)c1cncc(CO)c1` [compound 3, N-cyano-N'-[2-(2-chlorophenyl)ethyl]-5-hydroxymethyl-3-pyridinecarboximidamide], the ED20 in assay [1] came to 0.0087 mg/kg.

As for `N#CNC(=NCCO[N+](=O)[O-])c1cccnc1` [Reference Compound, N-cyano-N'-(2-nitroxyethyl)-3-pyridinecarboximidamide, reference compound], the “increase of coronary blood flow” value in assay [3] is “increase in coronary blood flow was observed”. Also, the “time for which the increase of coronary blood flow was retained” value in assay [3] was at most 10 min. Besides, the “percent change of coronary blood flow as compared with the blood flow before administration” value was 219.0% in assay [3] (1 min after dosage), 42.9% in assay [3] (3 min after dosage), 14.3% in assay [3] (5 min after dosage) and 0.0% in assay [3] (10 min after dosage). For the same compound, in assay [2], the “decrease in blood pressure / antihypertensive effect” value is listed as “antihypertensive effect was also observed”. In assay [2], the “duration of the antihypertensive effect” value is “about 6 hours”. Also, the “percent change … of the compound” value is -55.9% in assay [2] (1 hour after administration), -41.5% in assay [2] (2 hour after administration), -10.6% in assay [2] (4 hour after administration) and -6.8% in assay [2] (6 hour after administration).

As to `CCN(CC)c1ccc(C(=NCCO[N+](=O)[O-])NC#N)cn1` [compound 21, N-cyano-6-diethylamino-N'-(2-nitroxyethyl)-3-pyridinecarboximidamide], the IC50 in the assay on rat aorta came to 4.6 µM.

For the compound `N#CNC(=NCCO[N+](=O)[O-])c1ccc(N)nc1` [compound 20, 6-amino-N-cyano-N'-(2-nitroxyethyl)-3-pyridinecarboximidamide], the IC50 in the assay on rat aorta was found to be 2.7 µM.

For `N#CN=C(NCCc1ccccc1)c1cncc(N)c1` [Compound No. 16, 5-amino-N-cyano-N'-(2-phenethyl)-3-pyridine-carboximidamide], the “decrease in blood pressure” value in assay [4] is reported as “decrease in blood pressure was observed”. Besides, in assay [4], the “duration of the antihypertensive effect” value is at least 12 h. Besides, the “percentage change in SBP obtained before administration” value in assay [4] (1 hour after administration) is reported as -45.3%; in assay [4] (2 hour after administration) it was -23.9%; in assay [4] (4 hour after administration) it was -42.3%; in assay [4] (6 hour after administration) it was -27.9%; in assay [4] (8 hour after administration), -22.8%; in assay [4] (12 hour after administration), -15.1%. Further, the “percentage change in SBP obtained before administration” value in assay [4] (24 hour after administration) is reported as -8.2%. Moreover, the ED20 in assay [1] is 0.028 mg/kg.
